Measurements from publication PMC9413491, “A Novel and Cross-Species Active Mammalian INDY (NaCT) Inhibitor Ameliorates Hepatic Steatosis in Mice with Diet-Induced Obesity” (Metabolites, 2022).

Columns and labels:
DIO mice [1] = test: 7-day treatment of diet-induced obesity (DIO) mice; assay type: in vivo, mouse; details: 15 mg/kg twice daily, 7 days, p < 0.001 pair-fed, p < 0.05 vehicle
[2] = Viability (PrestoBlue) / cytotoxicity in HepG2 cells; assay type: cell-based; details: human, parallel to fatty acid synthesis assay
Method: We performed the fatty acid synthesis assay in HepG2 cells. We seeded cells into black clear-bottom 96-well plates (Corning 3340 cell plate) 75,000/well and incubated at 37 °C. After 16–24 h, we washed the plates once with 100 µL PBS (+CaCl2 +MgCl2) and added 50 µL assay medium ([…] containing 11 mM glucose, 10 mM HEPES, and 1 nM insulin) per well. Then, we applied test substances in assay medium (10 µL, 5% DMSO) and incubated for 20 min at 37 °C. Thereafter, we added 10 µL assay medium containing [14C] citrate (final concentration 50 µM) and PrestoBlue reagent (1× final concentration; Thermo Fisher Scientific, Waltham, MA, USA) and incubated for 180 min (37 °C, 5% CO2). We measured cell viability (ViewLux instrument, Perkin Elmer). We removed medium by vacuum aspiration and washed cells once with 100 µL PBS (+CaCl2 +MgCl2). We lysed cells with 50 µL lysis buffer (0.1 N NaOH, 0.1 % Triton X-100) and sealed plates with Tape Pads and vortexed. For the saponification reaction, we incubated plates for 16–24 h at 70 °C in a humidified environment. Then, we removed seals and added 200 µL 0.1 N HCl to neutralise the pH. We transferred 150 µL from each into corresponding wells of a 96-well Flash plate (Perkin Elmer) and sealed with TopSeal A (Perkin Elmer). […] We measured [14C] radioactivity (microbeta2, Perkin Elmer). […]

DIO mice [3] = test: 28-day treatment of diet-induced obesity (DIO) mice; assay type: in vivo, mouse
Method: We performed in vivo testing in DIO mice (for 7- and 28-day treatment), an established model designed to study high-fat-diet-induced hepatic steatosis and associated cardiometabolic traits. We established DIO in four-week-old C57BL/6N male mice that were fed a high-fat diet (HFD, 60 kcal% fat, D12492; Research Diets, Inc.; New Brunswick, NJ, USA) until 11 weeks of age.
Mice were housed at a temperature of 22–24 °C, with a day/night cycle of 12/12 h (07:00-19:00–07:00) and had access to the appropriate diet and tap water ad libitum. Animals allocated to the pair-feeding group were fed the same amount of food as the corresponding treatment group had consumed the day before. Food was only withdrawn for overnight fasting on the penultimate study day before the section on the final day. We randomised groups of n = 12 for treatment and n = 8 for pair-feeding cage-wise according to random fed blood glucose levels and body weight before the study treatment was started. For all animals, the high-fat diet was started at the same age.
We treated DIO mice with the inhibitor or corresponding vehicle (5% DMSO/10% Cremophor® EL/85% water) twice a day at the same time by oral gavage according to their grouping (5, 15, and 50 mg/kg dose groups, and vehicle control groups). During the study, we measured body weight and blood glucose. We measured glucose concentrations in tail tip blood samples with the “Accu-Chek® Performa” glucometer (Roche, Basel, Switzerland, range <33.3 mmol/L). We determined random fed blood glucose and fasting blood glucose after overnight fasting.
An intraperitoneal glucose tolerance test was performed after an overnight fasting period. Mice were injected with 1g/kg glucose and blood glucose was measured over a period of 180 min.
At the end of study day 28, we obtained blood and liver samples. In anesthetised animals, we collected retro-orbital blood samples in non-coated tubes (Sarstedt, Inc., Nümbrecht, Germany). Then, we sacrificed animals by cervical dislocation. We dissected and weighed the livers and immediately froze liver samples in liquid nitrogen for further analysis.
For serum sample generation, we centrifuged blood at 4000× g for 10 min and dispensed serum samples into a 110 µL plus an additional aliquot. Samples were stored at −80 °C. For Piccolo® system (Abaxis, Inc., Union City, CA, USA) analysis (lipid panel including triglycerides and cholesterol), we used a 110 µL serum aliquot.
The frozen tissue from liver samples were used to determine the triglyceride content via triglyceride assay according to the manufacturer’s protocol (Sigma-Aldrich, Cat.No.TR0100) using glycerol as a standard (Sigma-Aldrich, Glycerol G7793, St. Louis, MO, USA).
We determined body composition in mice using the non-invasive Bruker Minispec Instrument MQ 10 NMR Analyser (Bruker, Billerica, MA, USA). We placed mice in a clear, plastic cylinder and kept them immobile by inserting a tight-fitting plunger into the cylinder. For scanning, the tube was placed in the sample chamber for approximately one minute. Body composition was calculated and related to whole body weight.
We isolated total RNA from individual liver samples from all animals in 1.5 mL Trizol reagent (Life Technologies, Carlsbad, CA, USA) at 4 °C according to the manufacturer’s instructions. Then, we purified total RNA utilising the RNeasy Mini Kit (Qiagen, Hilden, Germany) with DNase-treatment to completely remove genomic DNA according to the instructions of the manufacturer. Subsequently, RNA was reverse transcribed using Superscript II RnaseH Reverse Transcriptase (Life Technologies) and subjected to Taqman analysis using the Taqman Fast Advanced Master Mix (Applied Biosystems, Weiterstadt, Germany). The Mix contains AmpliTaq® Fast DNA Polymerase, AmpErase UNG, dNTPs with dUTP, passive reference Rox and optimised buffer components. Quantitative PCR was performed in the Quantstudio 7 Flex System (Applied Biosystems, Weiterstadt, Germany). […]

[4] = 15 mg/kg oral twice daily, 28 days
[5] = 15 mg/kg oral twice daily, 28 days, p < 0.001
[6] = 15 mg/kg oral twice daily, 28 days, p < 0.01
[7] = 15 mg/kg oral twice daily, 28 days, p < 0.05

## O=C(Nc1cc(Cl)cc(C(F)(F)F)c1)OCCC(F)(F)F [ETG-5773]
DIO mice [1]
  Plasma β-hydroxybutyrate (β-HBA) concentrations vs pair-fed and vehicle: significantly increased
[2]
  IC50 at 180 min: > 50 µM
DIO mice [3]; 15 mg/kg oral twice daily
  Glucose excursion AUC (IPGTT) vs pair-fed control: not significant
DIO mice [3]; 15 mg/kg oral twice daily, 1 g/kg glucose i.p., all p < 0.05
  Glucose tolerance (IPGTT) vs vehicle control and pair-fed group: significantly improved glucose tolerance
DIO mice [3]; [4]
  Plasma cholesterol concentrations: no effect
  Plasma triglyceride concentrations vs vehicle: though not compared to the vehicle
DIO mice [3]; 15 mg/kg oral twice daily, 28 days, non-significant p = 0.2
  Reduction in fasting insulin vs pair-fed: 70%
DIO mice [3]; 15 mg/kg oral twice daily, 28 days, p < 0.0001
  Reduction in body weight vs vehicle group: 19%
DIO mice [3]; [5]
  Reduction in fasting blood glucose vs pair-fed: 25%
  Reduction in hepatic triglyceride content vs pair-fed: 25%
DIO mice [3]; [6]
  Plasma triglyceride concentrations vs pair-fed: slightly increased
  Reduction in body weight vs pair-fed group: 14%
DIO mice [3]; [7]
  Decrease in fasting blood glucose vs vehicle: 17%
  Reduction in fasting insulin vs vehicle: 75%
DIO mice [3]; 15 mg/kg oral twice daily, p < 0.05
  Glucose excursion AUC (IPGTT) vs vehicle control: significantly reduced
DIO mice [3]; 15 mg/kg twice daily, 28 days, p 0.09
  Hepatic Fasn mRNA vs pair-fed group: trend for reduction
DIO mice [3]; 15 mg/kg twice daily, 28 days, p < 0.0001
  Hepatic Srebf1 mRNA vs vehicle control and pair-fed: significantly downregulated
DIO mice [3]; 15 mg/kg twice daily, 28 days, p < 0.0001 vehicle, p < 0.001 pair-fed
  Hepatic Scd1 mRNA vs vehicle control and pair-fed: significantly downregulated
DIO mice [3]; 15 mg/kg twice daily, 28 days, p < 0.001 vehicle, p < 0.01 pair-fed
  Hepatic Acly mRNA vs vehicle control and pair-fed: significantly downregulated
DIO mice [3]; 15 mg/kg twice daily, 28 days, p < 0.01
  Hepatic Fasn mRNA vs vehicle control: significantly downregulated
DIO mice [3]; 15 mg/kg twice daily, 28 days, p < 0.05
  Hepatic Acc1 mRNA vs vehicle control: significantly downregulated
DIO mice [3]; 15 mg/kg twice daily, 28 days, p < 0.1
  Hepatic Acc1 mRNA vs pair-fed group: trend for reduction
DIO mice [3]; 15 mg/kg twice daily, day 22
  Body fat as percentage of body weight vs vehicle and pair-fed: significant decrease
  Lean mass as percentage of body weight vs vehicle and pair-fed: significant increase
DIO mice [3]; 15 mg/kg twice daily, day 22, p < 0.0001 vs vehicle, p < 0.01 vs pair-fed
  Fat mass (NMR) vs vehicle control and pair-fed group: markedly reduced
DIO mice [3]; 15 mg/kg twice daily, day 22, p < 0.01, not significant vs pair-fed
  Lean mass (NMR) vs vehicle control: significantly lower
